This is an account of results in patent US9289509B2, “Uses of immunoconjugates targeting CD138” (Biotest AG, priority 2009, dated 2016).

In series [1] the test system is RPMI 8226. Briefly: Combination with BT062 in cell lines (Chou and Talalay median effect analysis). The series is classed as cell-based. The conditions noted are these: RPMI 8226 cells. As to the method: Combination studies in xenograph mouse models were preceded by studies in cell lines. […] Here, IC50 values for the cytotoxic effects for each drug and each cell line are calculated, and then IC50 ratios for each drug pair. The cells were then exposed to dilution series of either these drug mixtures, or the drugs alone. Experimental data were analyzed using the CompuSyn software (ComboSyn, Inc., Paramus, N.J.). Combination Indexes (CI) for each independent experiment were calculated and reported separately. In the analysis, CI less than 1, equal to 1 and more than 1 indicates synergy, additivity and antagonism, respectively. According to the classification of T. C.

Series [2] concerns MOLP8. The series is described as above. The conditions noted are these: MOLP8 cells. The series is classed as cell-based, human.
For series [3] the following is noted: cited from earlier work.
Series [4] deals with MOLP-8 human multiple myeloma xenografts. In words: MOLP-8 xenograft in CB.17 SCID mice, single bolus iv (Xenograft Mouse Experiments A, Part I). In kind it is in vivo. The conditions noted are these: nBT062 […], all others 250 μg/kg (maytansinoid). How it is done: The conjugates were evaluated in a CD138-positive xenograft model (MOLP-8) of human multiple myeloma in severe combined immunodeficient (SCID) mice.
In these mice, subcutaneous tumors were established (female CB.17 SCID mice) by inoculation with MOLP-8 cell suspensions. Treatment with a single bolus intravenous injection was conducted when tumor volumes reached an average 113 mm^3. Changes in tumor volume and body weight were monitored twice per week.
Each mouse was inoculated with 1×10^7 MOLP-8 cells subcutaneously into the area under the right shoulder. The total volume was 0.2 ml per mouse, in which the ratio of serum-free medium to matrigel (BD Bioscience, Bedford, Mass.) was 1/1 (v/v). Prior to treatment, the xenograft tumors were monitored daily and were allowed to become established.
Eleven days after tumor cell inoculation, 42 mice were selected based on tumor volumes and body weights. […] The forty-two mice were randomly divided into seven groups (A-G) of six animals each based on tumor volume.
Each of six mice in Group A received 200 μl of PBS as vehicle control.
All agents were intravenously administered as a single bolus injection through a lateral tail vein with a 1 ml syringe fitted with a 27 gauge, ½ inch needle.

For series [5], the system named is MOLP-8 tumor xenografts. The note with it: 450 μg/kg dose; mean time to reach 160 mm^3 minus control.
Series [6] deals with MOLP8 multiple myeloma cells. In words: MOLP8 xenograft: BT062 and VELCADE combination therapy. The series is classed as in vivo, mouse. The note with it: for Fractional tumor volume (FTV): Velcade alone, dosed days 1, 4, 8 and 11.
Series [7] concerns CD56-positive multiple myeloma. The conditions noted are these: 1 patient each at 60, 90 and 112 mg/m^2/week; heavily pretreated; cited from earlier work.
Where [8] appears, read: Velcade 1 mg/kg days 1, 4, 8, 11.

As for `Nc1cccc2c1CN(C1CCC(=O)NC1=O)C2=O` (centres unmarked) [Lenalidomide], in series [1], the “estimate of synergy, drug combined with BT062” value (from here on “estimate of synergy”) is listed as “Synergistic”.

On to `O=C1CCC(N2C(=O)c3ccccc3C2=O)C(=O)N1` (stereo not drawn) [Thalidomide, α-(N-phthalimido) glutarimide], for which the “estimate of synergy” value in series [2] is listed as “antagonistic effect”.

Turning to `COc1cc2cc(c1Cl)N(C)C(=O)C[C@H](OC(=O)[C@H](C)N(C)C(=O)CCS)[C@]1(C)O[C@H]1[C@H](C)[C@@H]1C[C@@](O)(NC(=O)O1)[C@H](OC)/C=C/C=C(\C)C2` [DM1, N^2-deacetyl-N^2-(3-mercapto-1-oxopropyl)-maytansine], the “cytotoxicity relative to maytansine” value in series [3] (more cytotoxic than maytansine) was 3- to 10 fold.

With `COc1cc2cc(c1Cl)N(C)C(=O)C[C@H](OC(=O)[C@H](C)N(C)C(C)=O)[C@]1(C)O[C@H]1[C@H](C)[C@@H]1C[C@@](O)(NC(=O)O1)[C@H](OC)/C=C/C=C(\C)C2` [maytansine], the “cytotoxicity relative to Vinca alkaloids or taxol” value in series [3] (higher than anti-cancer drugs in clinical use that affect tubulin polymerization) was 200-1000 fold.

As to `COc1cc2cc(c1Cl)N(C)C(=O)C[C@H](OC(=O)[C@H](C)N(C)C(=O)CCC(C)(C)S)[C@]1(C)O[C@H]1[C@H](C)[C@@H]1C[C@@](O)(NC(=O)O1)[C@H](OC)/C=C/C=C(\C)C2` [DM4, N^2′-deacetyl-N^2′-(4-methyl-4-mercapto-1-oxopentyl)-maytansine, reference compound], the “effect on tumor growth” value in series [4] is listed as “did not cause any significant inhibition of tumor growth”.

As to nBT062-DM1, the “TGD (tumor growth delay)” value in series [5] worked out at 18 days.

Take `CC(C)C[C@H](NC(=O)[C@H](Cc1ccccc1)NC(=O)c1cnccn1)B(O)O` [Velcade, reference compound]: in series [2] (listed as Bortezomib), the “estimate of synergy” value is on record as “Slightly antagonistic”. The “estimate of synergy” value in series [2] (listed as bortezomib) is given as “antagonistic effect”. Also, in series [6] (VELCADE treatment alone (FIG. 29)), the “effect on tumor volume” value was “no effect on the tumor volume”. Moreover, in series [6] (setting [8]), the “(T-C)” value was determined as 0.5 days, the “Regressions Complete” value was 0/6, the “Regressions Partial” value is recorded as 0/6 and the Result result was “Inactive”. In addition, in series [6] (setting [8]), the “T/C (%)” value is 100%, the “Tumor free survivors day 67” value is listed as 0/6 and the log cell kill was 0.0. Also, the “Fractional tumor volume (FTV)” value in series [6] (day 14) came to 0.84. For the same molecule, in series [6] (day 18), the “Fractional tumor volume (FTV)” value came to 0.96. Also, the “Fractional tumor volume (FTV)” value in series [6] (day 21) was 0.80. Also, the “Fractional tumor volume (FTV)” value in series [6] (day 25) came out at 0.95. Moreover, the “combination effect with BT062 in xenograft model” value in series [6] (day 25, all BT062 dose regimens) was “synergistic”.

For B-B4-SPP-DM1 [reference compound], the “effect on tumor growth” value in series [4] is “marked delay in tumor growth”.

B1: IMGN901 (conjugate, chains of the INN, looked up)
VH: QVQLVESGGGVVQPGRSLRLSCAASGFTFSSFGMHWVRQAPGKGLEWVAYISSGSFTIYYADSVKGRFTISRDNSKNTLYLQMNSLRAEDTAVYYCARMRKGYAMDYWGQGTLVTVSS
VL: DVVMTQSPLSLPVTLGQPASISCRSSQIIIHSDGNTYLEWFQQRPGQSPRRLIYKVSNRFSGVPDRFSGSGSGTDFTLKISRVEAEDVGVYYCFQGSHVPHTFGQGTKVEIK
modifications: mertansine (DM1) conjugate
As to B1, the “patients with confirmed minor response (MR)” value in series [7] is 3 patients.
